Results: ChEMBL document CHEMBL1124726, “Novel [(diazomethyl)carbonyl]-1,2,3,4-tetrahydronaphthalene derivatives as potential photoaffinity ligands for the 5-HT1A receptor” (J Med Chem, 1990)

Tests used:
[1] = target: T1, 5-hydroxytryptamine receptor 1A (Rattus norvegicus, UniProt P19327); experiment: Binding affinity to 5-hydroxytryptamine 1A receptor in rat cortex using [3H]-8-OH- DPAT as radioligand
T1 sequence (P19327 whole entry): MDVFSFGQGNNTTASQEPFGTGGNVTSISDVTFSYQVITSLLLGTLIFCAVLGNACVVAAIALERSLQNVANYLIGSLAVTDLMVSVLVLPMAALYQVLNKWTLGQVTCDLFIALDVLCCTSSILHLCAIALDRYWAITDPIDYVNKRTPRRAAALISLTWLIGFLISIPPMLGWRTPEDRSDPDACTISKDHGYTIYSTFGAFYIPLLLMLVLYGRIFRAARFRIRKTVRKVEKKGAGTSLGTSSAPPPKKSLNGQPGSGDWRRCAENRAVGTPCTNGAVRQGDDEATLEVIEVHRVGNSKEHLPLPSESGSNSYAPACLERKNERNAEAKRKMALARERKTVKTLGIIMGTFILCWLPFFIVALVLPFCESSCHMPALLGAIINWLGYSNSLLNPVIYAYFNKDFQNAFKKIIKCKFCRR

[2] = target: T1, 5-hydroxytryptamine receptor 1A; experiment: Binding affinity to 5-hydroxytryptamine 1A receptor in rat hippocampus using [3H]-8-OH- DPAT as radioligand; assay type: tissue-based

Structure (SMILES) | IC50 [1] | IC50 [2]
CCCN(CCC)C1CCc2cccc(C(=O)[CH-][N+]#N)c2C1 (configuration not stated) | 20 nM | 24 nM
CCCN(CCC)C1CCc2cccc(OC(=O)[CH-][N+]#N)c2C1 (configuration not stated) | 107 nM | 155 nM
CCCN(CCC)C1CCc2cccc(C(=O)OC)c2C1 (configuration not stated) | 5.4 nM | –
CCCN(CCC)C1CCc2cccc(OCC(=O)C=[N+]=[N-])c2C1 (configuration not stated) | 72 nM | 78.1 nM
